Reference: article PMC10600247, “Impact of C- and N-terminal protection on the stability, metal chelation and antimicrobial properties of calcitermin” (Scientific Reports, 2023)
Residues, ends and D or L forms follow the SMILES beside them.

What was measured:
in vitro = conditions: human, pH 7.4
Protocol: Each peptide (C = 1·10^–4 M) and metal complex (metal:ligand ratio 1:1) was incubated in a sample containing 1 ml of human plasma (obtained as a pool of 40 individuals from the University Hospital of Ferrara) and 1 ml of ammonium acetate buffer (pH 7.4) at 37 °C. L-phenylalaninol is added as internal standard. At regular time intervals, 200 μl aliquots were taken and enzymatic reaction was blocked by adding 300 μl of HClO4 0.5 M. The sample was then centrifugated for 6 min at 14,000 × g. The supernatant was then filtered and analysed by HPLC. The analytical column was an Agilent Poroshell 120 SB-C18 (4.6 × 100 mm, 2.7 μm, pore size 120 Å). Flow rate = 0.5 ml/min, mobile phase H2O + 0.1% v/v TFA, linear gradient from 0 to 60% of acetonitrile + 0.1% v/v TFA over 30 min for the elution of peptides, temperature 25 °C, detection wavelength 210 nm. […] Informed consent was obtained from all subjects and/or their legal guardian(s) prior to the donation of blood samples. All experimental protocols were approved by the National Research and Research Transversal Processes boards at University of Ferrara. All methods were carried out in accordance with relevant guidelines and regulations.

C. albicans (ATCC 10231) = assay: In vitro antifungal CFU assay; format: cell-based, Candida albicans; conditions: pH 5.4; for mean CFU number ± S.D.: per 0.1 mL
Protocol: (§1) All microbes were grown at 37 °C in Tryptic Soy Broth (TSB; Biolife, Milan, Italy) or Tryptic Soy Agar plates (TSA, Biolife, Milan, Italy). Peptides were tested at a final concentration C = 0.128, 0.064, 0.032 mg/mL, in the presence or absence of ZnCl2 or CuCl2, at a M:L molar ratio 0.9:1. Briefly, all the microbes were expanded in TSB at 37 °C under agitation for 12 h and then sub-cultured by 1:10 dilution in TSB under the same conditions until reaching OD600nm = 0.3–0.4, as measured by spectrophotometric reading using a GENESYS 10S UV–Vis spectrophotometer (Thermo Scientific, Milan, Italy), corresponding to 0.9–1.2 × 10^7 colony forming units (CFU) per mL, 1.5–2 × 10^8 CFU/mL and 2.4–3.2 × 10^8 CFU/mL, for C. albicans, S. aureus and E. coli respectively. The cultures were then centrifuged at 4500 rpm for 10 min in a SL 8 centrifuge (TX-150 Rotor) (Thermo Scientific, Milan, Italy), and the cellular pellets were washed with PBS pH 5.4. Pelletized cultures were then suspended in 10 mL of PBS pH 5.4, then the suspensions were diluted to a final concentration of 10^4 CFU/mL. Aliquots of 100 µl (corresponding to 10^3 CFU) were seeded in each well of a 96-wells plate. 3 µl of TSB at pH 5.4 were added to each well to obtain a final 1.5% TSB concentration in the culture medium. Peptides were serially diluted in PBS pH 5.4 to C = 0.257, 0.128, and 0.064 mg/mL. ZnCl2 and CuCl2 solutions were added where requested to obtain a M:L ratio 0.9:1. 100 µl of the prepared peptides ± ZnCl2/CuCl2 solutions were then added to each well, obtaining the final 0.128, 0.064 and 0.032 mg/mL peptide concentrations in a total 0.2 mL volume. PBS alone and PBS + ZnCl2/CuCl2 solutions were included as controls. The plates were incubated at 37 °C on a platform rocker with slow stirring for 3 and 24 h. At the end of the incubation times, 100 µl aliquots were taken from each sample and diluted in PBS pH 5.4 to be seeded on TSA plates. Specifically, aliquots were diluted 1:10 at 3 h, and 1:200, 1:100,000 and 1:10 at 24 h, for C. albicans, E. coli, and S. aureus respectively. After incubation for 24 h at 37 °C, grown CFUs were enumerated. Samples were assayed in triplicate in two independent experiments. Student’s t-test was used for the evaluation of significance in biological tests; a p value ≤ 0.05 was considered significant.

E. coli (ATCC 25922) = assay: In vitro anti-E. coli CFU assay; format: cell-based, Escherichia coli; conditions: pH 5.4; for mean CFU number ± S.D.: per 0.1 mL
Protocol: as §1

[1] = peptide 0.032 mg/mL + CuCl2 (0.9:1), 3 h
[2] = peptide 0.032 mg/mL + CuCl2 (0.9:1), 24 h
[3] = peptide 0.032 mg/mL + ZnCl2 (0.9:1), 3 h
[4] = peptide 0.032 mg/mL + ZnCl2 (0.9:1), 24 h
[5] = peptide 0.064 mg/mL + CuCl2 (0.9:1), 3 h
[6] = peptide 0.064 mg/mL + CuCl2 (0.9:1), 24 h
[7] = peptide 0.064 mg/mL + ZnCl2 (0.9:1), 3 h
[8] = peptide 0.064 mg/mL + ZnCl2 (0.9:1), 24 h
[9] = peptide 0.128 mg/mL + CuCl2 (0.9:1), 3 h
[10] = peptide 0.128 mg/mL + CuCl2 (0.9:1), 24 h
[11] = peptide 0.128 mg/mL + ZnCl2 (0.9:1), 3 h
[12] = peptide 0.128 mg/mL + ZnCl2 (0.9:1), 24 h
[13] = peptide alone 0.032 mg/mL, 24 h
[14] = peptide alone 0.064 mg/mL, 24 h
[15] = peptide alone 0.128 mg/mL, 24 h

CC[C@H](C)[C@H](NC(=O)[C@H](C)NC(=O)[C@@H](NC(C)=O)C(C)C)C(=O)N[C@@H](C)C(=O)N[C@@H](CC(C)C)C(=O)N[C@@H](CCCCN)C(=O)N[C@@H](C)C(=O)N[C@@H](C)C(=O)N[C@@H](Cc1c[nH]cn1)C(=O)N[C@@H](Cc1ccc(O)cc1)C(=O)N[C@@H](Cc1c[nH]cn1)C(=O)N[C@H](C(=O)N[C@@H](Cc1c[nH]cn1)C(=O)N[C@@H](CCCCN)C(=O)N[C@@H](CCC(=O)O)C(N)=O)[C@@H](C)O [L2, Ac-VAIALKAAHYHTHKE-NH2] (Ac-VAIALKAAHYHTHKE-NH2)
half-life (in vitro): ~1.13 h
CFU decrease/increase with respect to untreated controls (C. albicans (ATCC 10231); [1]): +9.3%
mean CFU number ± S.D. (C. albicans (ATCC 10231); [1]): 153 ± 26 CFU
CFU decrease/increase with respect to untreated controls (C. albicans (ATCC 10231); [2]): +16%
mean CFU number ± S.D. (C. albicans (ATCC 10231); [2]): 1,908 ± 83 CFU
CFU decrease/increase with respect to untreated controls (C. albicans (ATCC 10231); [3]): -7.8%
mean CFU number ± S.D. (C. albicans (ATCC 10231); [3]): 129 ± 17 CFU
CFU decrease/increase with respect to untreated controls (C. albicans (ATCC 10231); [4]): +14%
mean CFU number ± S.D. (C. albicans (ATCC 10231); [4]): 1,873 ± 83 CFU
CFU decrease/increase with respect to untreated controls (C. albicans (ATCC 10231); [5]): +29%
mean CFU number ± S.D. (C. albicans (ATCC 10231); [5]): 180 ± 81 CFU
mean CFU number ± S.D. (C. albicans (ATCC 10231); [6]): 1,360 ± 140 CFU
CFU decrease/increase with respect to untreated controls (C. albicans (ATCC 10231); [7]): -44%
mean CFU number ± S.D. (C. albicans (ATCC 10231); [7]): 79 ± 18 CFU
mean CFU number ± S.D. (C. albicans (ATCC 10231); [8]): 881 ± 99 CFU
CFU decrease/increase with respect to untreated controls (C. albicans (ATCC 10231); [9]): -7%
mean CFU number ± S.D. (C. albicans (ATCC 10231); [9]): 130 ± 29 CFU
mean CFU number ± S.D. (C. albicans (ATCC 10231); [10]): 1,256 ± 129 CFU
mean CFU number ± S.D. (C. albicans (ATCC 10231); [11]): 36 ± 15 CFU
mean CFU number ± S.D. (C. albicans (ATCC 10231); [12]): 50 ± 29 CFU
CFU decrease/increase with respect to untreated controls (C. albicans (ATCC 10231); peptide alone 0.032 mg/mL, 3 h): +51%
mean CFU number ± S.D. (C. albicans (ATCC 10231); peptide alone 0.032 mg/mL, 3 h): 211 ± 25 CFU
CFU decrease/increase with respect to untreated controls (C. albicans (ATCC 10231); [13]): -5%
mean CFU number ± S.D. (C. albicans (ATCC 10231); [13]): 1,563 ± 72 CFU
CFU decrease/increase with respect to untreated controls (C. albicans (ATCC 10231); peptide alone 0.064 mg/mL, 3 h): +20%
mean CFU number ± S.D. (C. albicans (ATCC 10231); peptide alone 0.064 mg/mL, 3 h): 168 ± 14 CFU
CFU decrease/increase with respect to untreated controls (C. albicans (ATCC 10231); [14]): -10%
mean CFU number ± S.D. (C. albicans (ATCC 10231); [14]): 1,480 ± 198 CFU
CFU decrease/increase with respect to untreated controls (C. albicans (ATCC 10231); peptide alone 0.128 mg/mL, 3 h): +5.7%
mean CFU number ± S.D. (C. albicans (ATCC 10231); peptide alone 0.128 mg/mL, 3 h): 148 ± 24 CFU
CFU decrease/increase with respect to untreated controls (C. albicans (ATCC 10231); [15]): +6%
mean CFU number ± S.D. (C. albicans (ATCC 10231); [15]): 1,732 ± 249 CFU
mean CFU number ± S.D. (E. coli (ATCC 25922); [1]): 467 ± 19 CFU
CFU decrease/increase with respect to untreated controls (E. coli (ATCC 25922); [2]): -2.9%
mean CFU number ± S.D. (E. coli (ATCC 25922); [2]): 167 ± 37 CFU
mean CFU number ± S.D. (E. coli (ATCC 25922); [3]): 378 ± 8 CFU
CFU decrease/increase with respect to untreated controls (E. coli (ATCC 25922); [4]): -12.7%
mean CFU number ± S.D. (E. coli (ATCC 25922); [4]): 150 ± 4 CFU
mean CFU number ± S.D. (E. coli (ATCC 25922); [5]): 371 ± 54 CFU
CFU decrease/increase with respect to untreated controls (E. coli (ATCC 25922); [6]): -2.9%
mean CFU number ± S.D. (E. coli (ATCC 25922); [6]): 167 ± 12 CFU
mean CFU number ± S.D. (E. coli (ATCC 25922); [7]): 248 ± 88 CFU
CFU decrease/increase with respect to untreated controls (E. coli (ATCC 25922); [8]): -15.1%
mean CFU number ± S.D. (E. coli (ATCC 25922); [8]): 146 ± 6 CFU
mean CFU number ± S.D. (E. coli (ATCC 25922); [9]): 190 ± 15 CFU
CFU decrease/increase with respect to untreated controls (E. coli (ATCC 25922); [10]): -21%
mean CFU number ± S.D. (E. coli (ATCC 25922); [10]): 136 ± 25 CFU
mean CFU number ± S.D. (E. coli (ATCC 25922); [11]): 44 ± 4 CFU
CFU decrease/increase with respect to untreated controls (E. coli (ATCC 25922); [12]): -8.1%
mean CFU number ± S.D. (E. coli (ATCC 25922); [12]): 158 ± 18 CFU
CFU decrease/increase with respect to untreated controls (E. coli (ATCC 25922); peptide alone 0.032 mg/mL, 3 h): -1%
mean CFU number ± S.D. (E. coli (ATCC 25922); peptide alone 0.032 mg/mL, 3 h): 1,037 ± 161 CFU
CFU decrease/increase with respect to untreated controls (E. coli (ATCC 25922); [13]): +9%
mean CFU number ± S.D. (E. coli (ATCC 25922); [13]): 187 ± 11 CFU
CFU decrease/increase with respect to untreated controls (E. coli (ATCC 25922); peptide alone 0.064 mg/mL, 3 h): -2%
mean CFU number ± S.D. (E. coli (ATCC 25922); peptide alone 0.064 mg/mL, 3 h): 1031 ± 83 CFU
CFU decrease/increase with respect to untreated controls (E. coli (ATCC 25922); [14]): +8%
mean CFU number ± S.D. (E. coli (ATCC 25922); [14]): 186 ± 14 CFU
CFU decrease/increase with respect to untreated controls (E. coli (ATCC 25922); peptide alone 0.128 mg/mL, 3 h): -19%
mean CFU number ± S.D. (E. coli (ATCC 25922); peptide alone 0.128 mg/mL, 3 h): 845 ± 55 CFU
CFU decrease/increase with respect to untreated controls (E. coli (ATCC 25922); [15]): -3%
mean CFU number ± S.D. (E. coli (ATCC 25922); [15]): 166 ± 20 CFU
